Tests used:
Type in all cases: biochemical
PI3Kβ = biological target: T1, PI3Kβ (Homo sapiens, UniProt P42338); assay: TR-FRET enzymatic activity assay, PI3Kβ; conditions: recombinant heterodimeric PI3Kβ 25-50 pM, 2× Km ATP, 30 minutes at 25°C
T1 construct: made in house
Outline: (§1)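 Activity measured by time-resolved FRET; each isoform tested in its own enzymatic reaction.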

PI3Kδ = biological target: T2, PI3Kδ (Homo sapiens, UniProt O00329); assay: TR-FRET enzymatic activity assay, PI3Kδ; conditions: recombinant heterodimeric PI3Kδ 25-50 pM, 2× Km ATP, 30 minutes at 25°C
T2 construct: made in house
T2 sequence (O00329 whole entry): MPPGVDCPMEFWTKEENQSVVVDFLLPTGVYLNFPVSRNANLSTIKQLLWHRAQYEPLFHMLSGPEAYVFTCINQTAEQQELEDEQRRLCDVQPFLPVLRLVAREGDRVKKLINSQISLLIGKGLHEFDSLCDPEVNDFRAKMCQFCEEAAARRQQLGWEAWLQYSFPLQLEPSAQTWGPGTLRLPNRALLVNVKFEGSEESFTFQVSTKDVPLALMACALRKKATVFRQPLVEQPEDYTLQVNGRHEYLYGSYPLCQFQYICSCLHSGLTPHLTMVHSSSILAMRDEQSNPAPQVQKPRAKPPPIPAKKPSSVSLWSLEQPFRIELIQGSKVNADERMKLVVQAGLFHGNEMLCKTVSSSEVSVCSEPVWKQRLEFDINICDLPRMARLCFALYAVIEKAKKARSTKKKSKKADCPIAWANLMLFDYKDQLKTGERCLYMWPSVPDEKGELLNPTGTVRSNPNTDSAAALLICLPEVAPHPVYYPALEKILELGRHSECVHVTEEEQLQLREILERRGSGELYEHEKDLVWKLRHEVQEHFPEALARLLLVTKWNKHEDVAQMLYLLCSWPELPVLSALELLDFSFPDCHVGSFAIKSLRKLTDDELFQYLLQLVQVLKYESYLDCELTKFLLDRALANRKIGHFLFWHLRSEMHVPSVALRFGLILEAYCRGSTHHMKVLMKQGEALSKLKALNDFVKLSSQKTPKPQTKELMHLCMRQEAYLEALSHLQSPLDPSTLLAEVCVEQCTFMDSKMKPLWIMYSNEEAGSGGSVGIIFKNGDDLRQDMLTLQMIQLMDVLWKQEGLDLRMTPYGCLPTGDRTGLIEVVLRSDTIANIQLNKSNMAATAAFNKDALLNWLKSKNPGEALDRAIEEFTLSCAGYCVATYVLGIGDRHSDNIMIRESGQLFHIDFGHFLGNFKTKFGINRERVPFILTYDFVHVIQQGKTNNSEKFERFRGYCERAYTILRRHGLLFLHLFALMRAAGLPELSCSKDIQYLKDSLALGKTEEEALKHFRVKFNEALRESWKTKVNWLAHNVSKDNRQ
T2 sequence (P27986 whole entry partner): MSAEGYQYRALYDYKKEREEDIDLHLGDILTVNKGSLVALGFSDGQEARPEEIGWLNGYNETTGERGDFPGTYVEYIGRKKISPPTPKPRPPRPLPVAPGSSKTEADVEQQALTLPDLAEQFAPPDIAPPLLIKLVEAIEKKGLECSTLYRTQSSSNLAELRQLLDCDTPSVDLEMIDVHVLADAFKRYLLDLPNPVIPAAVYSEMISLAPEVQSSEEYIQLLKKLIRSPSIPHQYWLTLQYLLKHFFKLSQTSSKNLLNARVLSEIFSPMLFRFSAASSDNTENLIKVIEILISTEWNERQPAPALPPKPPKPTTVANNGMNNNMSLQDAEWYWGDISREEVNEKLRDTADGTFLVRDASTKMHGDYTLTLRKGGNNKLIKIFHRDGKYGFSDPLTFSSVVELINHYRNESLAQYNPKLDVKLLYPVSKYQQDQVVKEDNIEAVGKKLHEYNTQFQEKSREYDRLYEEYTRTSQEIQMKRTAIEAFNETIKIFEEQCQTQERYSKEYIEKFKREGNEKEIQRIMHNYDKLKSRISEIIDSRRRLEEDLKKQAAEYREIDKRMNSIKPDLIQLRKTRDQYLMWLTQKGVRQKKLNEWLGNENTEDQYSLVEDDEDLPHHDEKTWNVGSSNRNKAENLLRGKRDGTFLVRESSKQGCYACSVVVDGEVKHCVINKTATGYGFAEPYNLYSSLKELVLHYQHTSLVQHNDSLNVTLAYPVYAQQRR
Outline: as §1

PI3Kγ = biological target: T3, PI3Kγ (Homo sapiens, UniProt P48736); assay: TR-FRET enzymatic activity assay, PI3Kγ; conditions: recombinant heterodimeric PI3Kγ 2 nM, 2× Km ATP, 30 minutes at 25°C
T3 construct: made in house
T3 sequence (P48736 whole entry): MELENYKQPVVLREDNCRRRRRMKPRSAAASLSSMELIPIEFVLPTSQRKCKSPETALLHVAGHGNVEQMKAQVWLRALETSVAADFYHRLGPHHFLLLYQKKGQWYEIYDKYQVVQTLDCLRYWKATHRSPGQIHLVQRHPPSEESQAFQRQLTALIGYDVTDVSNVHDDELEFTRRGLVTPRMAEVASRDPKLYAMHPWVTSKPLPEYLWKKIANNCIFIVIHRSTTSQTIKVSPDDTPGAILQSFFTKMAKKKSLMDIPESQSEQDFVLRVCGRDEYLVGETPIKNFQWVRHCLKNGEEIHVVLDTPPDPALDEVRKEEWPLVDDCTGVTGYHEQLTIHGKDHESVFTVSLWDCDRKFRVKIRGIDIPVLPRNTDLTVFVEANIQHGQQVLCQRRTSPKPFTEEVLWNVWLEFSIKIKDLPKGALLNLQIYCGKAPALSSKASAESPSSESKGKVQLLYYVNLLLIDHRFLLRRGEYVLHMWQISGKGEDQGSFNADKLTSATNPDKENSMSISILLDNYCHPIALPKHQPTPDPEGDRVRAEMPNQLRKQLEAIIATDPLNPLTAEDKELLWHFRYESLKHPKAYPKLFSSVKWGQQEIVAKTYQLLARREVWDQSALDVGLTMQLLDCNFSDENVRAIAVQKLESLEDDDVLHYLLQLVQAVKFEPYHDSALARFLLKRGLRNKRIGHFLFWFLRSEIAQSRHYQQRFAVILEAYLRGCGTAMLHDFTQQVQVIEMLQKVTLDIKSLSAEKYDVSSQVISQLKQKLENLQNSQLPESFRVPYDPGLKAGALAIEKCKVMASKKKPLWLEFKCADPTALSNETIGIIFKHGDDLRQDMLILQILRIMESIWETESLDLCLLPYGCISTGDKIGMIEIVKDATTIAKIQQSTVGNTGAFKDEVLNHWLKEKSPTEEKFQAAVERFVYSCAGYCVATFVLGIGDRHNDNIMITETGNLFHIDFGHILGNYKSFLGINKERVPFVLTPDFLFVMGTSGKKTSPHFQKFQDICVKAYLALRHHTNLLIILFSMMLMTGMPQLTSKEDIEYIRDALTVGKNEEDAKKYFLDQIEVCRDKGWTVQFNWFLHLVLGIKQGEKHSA
T3 sequence (Q8WYR1 whole entry partner): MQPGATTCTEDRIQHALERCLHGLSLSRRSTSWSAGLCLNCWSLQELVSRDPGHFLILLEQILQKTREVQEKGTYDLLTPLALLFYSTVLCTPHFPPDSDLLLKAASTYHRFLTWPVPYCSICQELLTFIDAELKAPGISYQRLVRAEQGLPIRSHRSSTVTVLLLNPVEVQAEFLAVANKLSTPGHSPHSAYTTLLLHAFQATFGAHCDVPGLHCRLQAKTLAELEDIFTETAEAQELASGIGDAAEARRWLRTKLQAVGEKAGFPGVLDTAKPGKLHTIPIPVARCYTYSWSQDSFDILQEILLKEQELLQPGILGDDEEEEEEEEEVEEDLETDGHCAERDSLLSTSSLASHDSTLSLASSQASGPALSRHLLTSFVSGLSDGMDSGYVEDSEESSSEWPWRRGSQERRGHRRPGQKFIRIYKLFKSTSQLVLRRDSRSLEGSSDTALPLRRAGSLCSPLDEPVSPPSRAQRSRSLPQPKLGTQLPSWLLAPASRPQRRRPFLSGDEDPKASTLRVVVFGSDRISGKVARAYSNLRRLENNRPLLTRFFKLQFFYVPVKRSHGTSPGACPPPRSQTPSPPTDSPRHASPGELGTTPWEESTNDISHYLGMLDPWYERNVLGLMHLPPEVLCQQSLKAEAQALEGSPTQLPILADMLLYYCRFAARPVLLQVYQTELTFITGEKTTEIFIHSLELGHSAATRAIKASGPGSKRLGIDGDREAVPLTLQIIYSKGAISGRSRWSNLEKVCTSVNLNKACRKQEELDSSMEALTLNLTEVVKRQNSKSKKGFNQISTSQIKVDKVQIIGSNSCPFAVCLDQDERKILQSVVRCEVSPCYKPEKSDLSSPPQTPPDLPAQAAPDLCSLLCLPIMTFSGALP
Outline: as §1

T1 sequence (P42338 whole entry): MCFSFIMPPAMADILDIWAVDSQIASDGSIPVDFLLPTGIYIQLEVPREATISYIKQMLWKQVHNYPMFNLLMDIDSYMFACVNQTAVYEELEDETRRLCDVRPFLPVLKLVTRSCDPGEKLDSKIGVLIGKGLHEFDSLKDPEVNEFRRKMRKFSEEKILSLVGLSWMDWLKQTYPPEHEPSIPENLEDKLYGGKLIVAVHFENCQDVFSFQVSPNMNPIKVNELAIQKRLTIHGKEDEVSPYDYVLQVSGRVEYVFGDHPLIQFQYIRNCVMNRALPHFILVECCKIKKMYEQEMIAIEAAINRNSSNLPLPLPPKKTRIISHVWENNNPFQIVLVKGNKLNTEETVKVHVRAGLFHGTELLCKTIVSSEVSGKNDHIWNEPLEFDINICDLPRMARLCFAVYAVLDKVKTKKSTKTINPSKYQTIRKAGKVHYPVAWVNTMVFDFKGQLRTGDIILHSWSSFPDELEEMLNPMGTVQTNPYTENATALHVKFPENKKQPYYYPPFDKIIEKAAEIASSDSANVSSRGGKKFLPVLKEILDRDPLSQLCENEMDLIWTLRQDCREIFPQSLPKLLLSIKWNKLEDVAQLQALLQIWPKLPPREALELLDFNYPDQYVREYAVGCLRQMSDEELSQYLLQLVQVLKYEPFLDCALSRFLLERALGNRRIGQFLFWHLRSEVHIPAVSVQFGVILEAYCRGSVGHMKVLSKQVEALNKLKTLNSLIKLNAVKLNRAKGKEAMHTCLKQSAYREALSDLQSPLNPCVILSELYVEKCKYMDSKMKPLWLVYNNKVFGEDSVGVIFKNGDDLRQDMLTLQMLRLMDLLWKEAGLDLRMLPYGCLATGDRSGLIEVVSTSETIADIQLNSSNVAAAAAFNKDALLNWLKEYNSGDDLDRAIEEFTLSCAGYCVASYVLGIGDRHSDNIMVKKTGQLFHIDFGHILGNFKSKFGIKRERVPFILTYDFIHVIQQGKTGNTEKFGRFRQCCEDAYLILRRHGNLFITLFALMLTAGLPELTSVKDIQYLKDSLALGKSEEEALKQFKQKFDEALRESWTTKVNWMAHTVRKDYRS
T1 sequence (P27986 whole entry partner): as the sequence (P27986 whole entry partner) above

SMILES	IC50 (PI3Kβ)	IC50 (PI3Kδ)	IC50 (PI3Kγ)
C[C@H](Nc1ncnc2cccnc12)c1nc2cccc(Cl)c2c(=O)n1C1CCCNCC1 (stereo partly drawn) [Compound 81, 3-(azepan-4-yl)-5-chloro-2-((S)-1-(pyrido[3,2-d]pyrimidin-4-ylamino)ethyl)quinazolin-4(3H)-one]	520 nM	35 nM	> 10000 nM
C[C@H](Nc1ncnn2ccnc12)c1nc2cccc(Cl)c2c(=O)n1N1CCNCC1 [Compound 65, (S)-5-chloro-2-(1-(imidazo[2,1-f][1,2,4]triazin-4-ylamino)ethyl)-3-(piperazin-1-yl)quinazolin-4(3H)-one]	42 nM	8 nM	> 10000 nM
Cc1nc(N)c(C(=O)N[C@@H](C)c2nc3cccc(Cl)c3c(=O)n2N2CCNCC2)nc1C [Compound 59, (S)-3-amino-N-(1-(5-chloro-4-oxo-3-(piperazin-1-yl)-3,4-dihydroquinazolin-2-yl)ethyl)-5,6-dimethylpyrazine-2-carboxamide]	73 nM	280 nM	> 10000 nM
C[C@H](Nc1ncnc(N)c1C#N)c1nc2cccc(Cl)c2c(=O)n1C1CCCNC1 (stereo partly drawn) [Compound 83, 4-amino-6-(((1S)-1-(5-chloro-4-oxo-3-(piperidin-3-yl)-3,4-dihydroquinazolin-2-yl)ethyl)amino)pyrimidine-5-carbonitrile]	270 nM	8 nM	> 10000 nM
C[C@H](Nc1nc(N)nc(N)c1C#N)c1nc2cccc(Cl)c2c(=O)n1C1CCNCC1(F)F (stereo partly drawn) [Compound 38, 2,4-diamino-6-(((1S)-1-(5-chloro-3-(3,3-difluoropiperidin-4-yl)-4-oxo-3,4-dihydroquinazolin-2-yl)ethyl)amino)pyrimidine-5-carbonitrile]	220 nM	6 nM	1500 nM
O=c1c2c(Cl)ccc(F)c2nc([C@@H](Nc2ncnn3ccnc23)C2CC2)n1N1CCNCC1 [Compound 47, (S)-5-chloro-2-(cyclopropyl(imidazo[2,1-f][1,2,4]triazin-4-ylamino)methyl)-8-fluoro-3-(piperazin-1-yl)quinazolin-4(3H)-one]	48 nM	5 nM	> 10000 nM
Cc1nc(N)nc(N[C@@H](C)c2nc3c(F)ccc(Cl)c3c(=O)n2C2[C@H]3CNC[C@@H]23)c1C#N (stereo in doubt) [Compound 16, 4-(((1S)-1-(3-((1R,5S)-3-azabicyclo[3.1.0]hexan-6-yl)-5-chloro-8-fluoro-4-oxo-3,4-dihydroquinazolin-2-yl)ethyl)amino)-2-amino-6-methylpyrimidine-5-carbonitrile]	2 nM	6 nM	2600 nM
C[C@H](Nc1ncnc2scnc12)c1nc2cccc(Cl)c2c(=O)n1N1CCNCC1 [Compound 70, (S)-5-chloro-3-(piperazin-1-yl)-2-(1-(thiazolo[5,4-d]pyrimidin-7-ylamino)ethyl)quinazolin-4(3H)-one]	14 nM	3 nM	> 10000 nM
C[C@H](Nc1ncnc2cccnc12)c1nc2cccc(Cl)c2c(=O)n1N1CCNCC1 [Compound 73, (S)-5-chloro-3-(piperazin-1-yl)-2-(1-(pyrido[3,2-d]pyrimidin-4-ylamino)ethyl)quinazolin-4(3H)-one]	19 nM	8 nM	> 10000 nM
C[C@H](Nc1nc(N)nc(N)c1C#N)c1nc2cccc(Cl)c2c(=O)n1C1CCNCC1 [Compound 26, (S)-2,4-diamino-6-((1-(5-chloro-4-oxo-3-(piperidin-4-yl)-3,4-dihydroquinazolin-2-yl)ethyl)amino)pyrimidine-5-carbonitrile]	2 nM	2 nM	> 10000 nM
C[C@H](Nc1nc(N)nc(N)c1Cl)c1nc2c(F)ccc(Cl)c2c(=O)n1N1CCNCC1 [Compound 20, (S)-5-chloro-2-(1-((2,6-diamino-5-chloropyrimidin-4-yl)amino)ethyl)-8-fluoro-3-(piperazin-1-yl)quinazolin-4(3H)-one]	40 nM	20 nM	> 10000 nM
C[C@H](Nc1nc(N)nc(N)c1C#N)c1nc2cccc(Cl)c2c(=O)n1C1C[C@H]2CC[C@@H](C1)N2C (stereo partly drawn) [Compound 4, 2,4-diamino-6-(((1S)-1-(5-chloro-3-((1R,5S)-8-methyl-8-azabicyclo[3.2.1]octan-3-yl)-4-oxo-3,4-dihydroquinazolin-2-yl)ethyl)amino)pyrimidine-5-carbonitrile]	290 nM	82 nM	> 10000 nM
CC(C)N1CCN(n2c([C@H](C)Nc3nc(N)nc(N)c3C#N)nc3cccc(Cl)c3c2=O)CC1 [Compound 88, (S)-2,4-diamino-6-((1-(5-chloro-3-(4-isopropylpiperazin-1-yl)-4-oxo-3,4-dihydroquinazolin-2-yl)ethyl)amino)pyrimidine-5-carbonitrile]	120 nM	54 nM	5800 nM
CC[C@H](Nc1nc(N)nc(N)c1C#N)c1nc2cccc(Cl)c2c(=O)n1N1CCN(Cc2ccccc2)CC1 [Compound 94, (S)-2,4-diamino-6-((1-(3-(4-benzylpiperazin-1-yl)-5-chloro-4-oxo-3,4-dihydroquinazolin-2-yl)propyl)amino)pyrimidine-5-carbonitrile]	56 nM	32 nM	2900 nM
C[C@H](Nc1nc(N)nc(N)c1C#N)c1nc2cccc(Cl)c2c(=O)n1C1CNC1 [Compound 29, (S)-2,4-diamino-6-((1-(3-(azetidin-3-yl)-5-chloro-4-oxo-3,4-dihydroquinazolin-2-yl)ethyl)amino)pyrimidine-5-carbonitrile]	91 nM	31 nM	3100 nM
C[C@H](Nc1ncnc(N)c1C#N)c1nc2cccc(Cl)c2c(=O)n1N1CCNC(C(F)(F)F)C1 (stereo partly drawn) [Compound 62, 4-amino-6-(((1S)-1-(5-chloro-4-oxo-3-(3-(trifluoromethyl)piperazin-1-yl)-3,4-dihydroquinazolin-2-yl)ethyl)amino)pyrimidine-5-carbonitrile]	820 nM	9 nM	8400 nM
CC[C@H](Nc1ncnn2ccnc12)c1nc2cccc(Cl)c2c(=O)n1N1CCNCC1 [Compound 42, (S)-5-chloro-2-(1-(imidazo[2,1-f][1,2,4]triazin-4-ylamino)propyl)-3-(piperazin-1-yl)quinazolin-4(3H)-one]	45 nM	8 nM	> 10000 nM

Now from value to compound:

IC50 (PI3Kβ)	IC50 (PI3Kδ)	IC50 (PI3Kγ)	SMILES
10 nM	14 nM	> 10000 nM	C[C@H](Nc1nc(N)nc(Cl)c1C#N)c1nc2cccc(Cl)c2c(=O)n1C1CCNCC1 [Compound 128, (S)-2-Amino-4-chloro-6-((1-(5-chloro-4-oxo-3-(piperidin-4-yl)-3,4-dihydroquinazolin-2-yl)ethyl)amino)pyrimidine-5-carbonitrile]
93 nM	15 nM	460 nM	C[C@H](Nc1nc(N)nc(N)c1C#N)c1nc2cccc(Cl)c2c(=O)n1N1CCN(C2COC2)CC1 [Compound 97, (S)-2,4-diamino-6-((1-(5-chloro-3-(4-(oxetan-3-yl)piperazin-1-yl)-4-oxo-3,4-dihydroquinazolin-2-yl)ethyl)amino)pyrimidine-5-carbonitrile]
1800 nM	37 nM	5300 nM	C[C@H](Nc1ncnc2scnc12)c1nc2cccc(Cl)c2c(=O)n1N1CCN(CC(F)F)CC1 [Compound 115, (S)-5-chloro-3-(4-(2,2-difluoroethyl)piperazin-1-yl)-2-(1-(thiazolo[5,4-d]pyrimidin-7-ylamino)ethyl)quinazolin-4(3H)-one]
4700 nM	70 nM	> 10000 nM	CCN1CCC(n2c([C@H](C)Nc3ncnc4[nH]cnc34)nc3cccc(Cl)c3c2=O)C1 (stereo partly drawn) [Compound 135, 2-((S)-1-((9H-purin-6-yl)amino)ethyl)-5-chloro-3-(1-ethylpyrrolidin-3-yl)quinazolin-4(3H)-one]
290 nM	14 nM	660 nM	Cc1nc(N)nc(N[C@@H](C)c2nc3cccc(Cl)c3c(=O)n2N2CCN(CC(F)(F)F)CC2)c1C#N [Compound 109, (S)-2-amino-4-((1-(5-chloro-4-oxo-3-(4-(2,2,2-trifluoroethyl)piperazin-1-yl)-3,4-dihydroquinazolin-2-yl)ethyl)amino)-6-methylpyrimidine-5-carbonitrile]
5 nM	6 nM	350 nM	C[C@H](Nc1nc(N)nc(N)c1C#N)c1nc2cccc(Cl)c2c(=O)n1N1CCN(C)CC1 [Compound 125, (S)-2,4-diamino-6-((1-(5-chloro-3-(4-methylpiperazin-1-yl)-4-oxo-3,4-dihydroquinazolin-2-yl)ethyl)amino)pyrimidine-5-carbonitrile]
1800 nM	19 nM	2200 nM	Nc1nc(N)c(Cl)c(N[C@H](c2nc3cccc(Cl)c3c(=O)n2N2CCOCC2)C2CC2)n1 [Compound 122, (S)-5-chloro-2-(cyclopropyl((2,6-diamino-5-chloropyrimidin-4-yl)amino)methyl)-3-morpholinoquinazolin-4(3H)-one]
14 nM	17 nM	650 nM	Cc1nc(N)nc(N[C@@H](C)c2nc3c(F)ccc(Cl)c3c(=O)n2N2CCN(Cc3ccccc3)CC2)c1C#N [Compound 118, (S)-2-amino-4-((1-(3-(4-benzylpiperazin-1-yl)-5-chloro-8-fluoro-4-oxo-3,4-dihydroquinazolin-2-yl)ethyl)amino)-6-methylpyrimidine-5-carbonitrile]
134 nM	2 nM	190 nM	N#Cc1c(N)nc(N)nc1N[C@H](c1nc2cccc(Cl)c2c(=O)n1N1CCOCC1)C1CC1 [Compound 121, (S)-2,4-diamino-6-(((5-chloro-3-morpholino-4-oxo-3,4-dihydroquinazolin-2-yl)(cyclopropyl)methyl)amino)pyrimidine-5-carbonitrile]
